Measurements published in patent publication US8124647B2 (priority 2002, dated 2012).
Where two headings read alike, the source gives them in different places.

Biological target: T1, human androgen receptor (Homo sapiens, UniProt P10275)
T1 construct: expressed in transfected cells; host or cells: CHO cells, cell line CHO-AR-pMMTV-LUC 1G12-A5-CA
T1 sequence (P10275 1-920): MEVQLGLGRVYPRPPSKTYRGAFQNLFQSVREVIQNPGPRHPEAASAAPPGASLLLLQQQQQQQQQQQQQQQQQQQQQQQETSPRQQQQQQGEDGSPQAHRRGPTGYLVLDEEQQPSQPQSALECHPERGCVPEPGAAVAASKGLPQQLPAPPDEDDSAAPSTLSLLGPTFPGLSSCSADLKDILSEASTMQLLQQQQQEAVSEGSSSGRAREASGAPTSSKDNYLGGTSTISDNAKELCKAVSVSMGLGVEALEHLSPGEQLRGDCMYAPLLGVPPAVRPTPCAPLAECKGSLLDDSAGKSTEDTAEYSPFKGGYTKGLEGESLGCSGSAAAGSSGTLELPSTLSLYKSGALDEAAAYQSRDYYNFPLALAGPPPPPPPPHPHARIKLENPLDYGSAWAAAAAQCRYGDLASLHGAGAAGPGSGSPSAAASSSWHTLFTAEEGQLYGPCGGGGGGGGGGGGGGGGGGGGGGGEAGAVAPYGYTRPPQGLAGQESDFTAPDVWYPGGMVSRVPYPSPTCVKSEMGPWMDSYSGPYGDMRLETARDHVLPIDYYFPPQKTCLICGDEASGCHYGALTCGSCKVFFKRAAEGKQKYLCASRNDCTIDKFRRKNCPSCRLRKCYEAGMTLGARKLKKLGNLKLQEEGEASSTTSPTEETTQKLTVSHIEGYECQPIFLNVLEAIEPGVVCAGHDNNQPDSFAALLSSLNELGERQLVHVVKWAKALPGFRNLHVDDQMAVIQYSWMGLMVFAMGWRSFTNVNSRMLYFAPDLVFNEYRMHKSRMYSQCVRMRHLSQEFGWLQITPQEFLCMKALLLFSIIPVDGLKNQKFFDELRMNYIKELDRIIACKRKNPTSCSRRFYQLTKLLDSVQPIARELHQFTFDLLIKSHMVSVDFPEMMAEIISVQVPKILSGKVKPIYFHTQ
Assay: androgenic activity (EC50, potency, efficacy), transactivation bioassay in CHO-AR-pMMTV-LUC cells in the presence of 0.1 μmol/l onapristone (Table 5)
Type: cell-based
Settings: for Emax: read-out: ago efficacy; for ago potency: potency expressed as percentage of DHT activity, in the presence of 0.1 μmol/l onapristone
Description: The androgenic activity (EC50, potency, and efficacy) of the compounds in Table 5 was determined in an in vitro bioassay of Chinese hamster ovary (CHO) cells stably transfected with the human androgen receptor expression plasmid and a reporter plasmid in which the MMTV promoter is linked to the luciferase reporter gene. The cell line CHO-AR-pMMTV-LUC 1G12-A5-CA is described in Schoonen et al. (J. Steroid Biochem. Moles. Biol. […]; 74: 213-222). The androgen receptor activity of compounds was determined in the presence of 0.1 μmol/l onapristone. The maximal efficacy in the presence of 100 nmol/l DHT was set as 100%. The potencies are expressed as percentage of DHT activity.

[1] = maximal intrinsic activity, activity in the presence of 100 nM DHT set at 1.00, CHO-AR-pMMTV-LUC cells, 0.1 μmol/l onapristone

Compound	Emax [1] [%]	ago potency (CHO-AR-pMMTV-LUC cells)	Emax [%]	ago efficacy [1]
CCC(=O)Nc1ccc2c(Sc3ccccc3[N+](=O)[O-])cn(Cc3cc(F)cc(F)c3)c2c1 [Compound 99, N-[1-(3,5-Difluoro-benzyl)-3-(2-nitro-phenylsulfanyl)-1H-indol-6-yl]-propionamide]	50 to 80	± (between 0.1% and 1%)	–	–
N#Cc1ccc2c(Sc3ccccc3[N+](=O)[O-])cn(Cc3cccnc3)c2c1 [Compound 121, 3-(2-Nitro-phenylsulfanyl)-1-pyridin-3-ylmethyl-1H-indole-6-carbonitrile]	> 80	+ (between 1% and 5%)	–	–
N#Cc1ccc2c(Sc3ccccc3[N+](=O)[O-])cn(Cc3ccncc3)c2c1 [Compound 122, 3-(2-Nitro-phenylsulfanyl)-1-pyridin-4-ylmethyl-1H-indole-6-carbonitrile]	50 to 80	+ (between 1% and 5%)	–	–
COc1ccc2c(Sc3ccccc3[N+](=O)[O-])cn(Cc3ccncn3)c2c1 [Compound 116, 6-Methoxy-3-(2-nitro-phenylsulfanyl)-1-pyrimidin-4-ylmethyl-1H-indole]	50 to 80	+ (between 1% and 5%)	–	–
O=CNc1ccc2c(Sc3ccccc3[N+](=O)[O-])cn(Cc3cncnc3)c2c1 [Compound 118, N-[3-(2-Nitro-phenylsulfanyl)-1-pyrimidin-5-ylmethyl-1H-indol-6-yl]-formamide]	50 to 80	++ (>5%)	–	–
COc1ccc2c(Sc3ccccc3[N+](=O)[O-])cn(Cc3cncnc3)c2c1 [Compound 115, 6-Methoxy-3-(2-nitro-phenylsulfanyl)-1-pyrimidin-5-ylmethyl-1H-indole]	50 to 80	++ (>5%)	–	–
COc1ccc2c(Sc3ccccc3[N+](=O)[O-])cn(Cc3cc(F)c(F)c(F)c3)c2c1 [Compound 94, 6-Methoxy-3-(2-nitro-phenylsulfanyl)-1-(3,4,5-trifluoro-benzyl)-1H-indole]	> 80	+ (between 1% and 5%)	–	–
COc1ccc2c(Sc3ccccc3[N+](=O)[O-])cn(Cc3ccc(Cl)nc3)c2c1 [Compound 96, 1-(6-Chloro-pyridin-3-ylmethyl)-6-methoxy-3-(2-nitro-phenylsulfanyl)-1H-indole]	20 to 50	± (between 0.1% and 1%)	–	–
CCC(=O)Nc1ccc2c(Sc3ccccc3[N+](=O)[O-])cn(Cc3ccccn3)c2c1 [Compound 102, N-[3-(2-Nitro-phenylsulfanyl)-1-pyridin-2-ylmethyl-1H-indol-6-yl]-propionamide]	50 to 80	+ (between 1% and 5%)	–	–
Cn1cnc(S(=O)(=O)Nc2ccc3c(Sc4ccccc4[N+](=O)[O-])cn(Cc4cc(F)cc(F)c4)c3c2)c1 [Compound 108, 1-Methyl-1H-imidazole-4-sulfonic acid [1-(3,5-difluoro-benzyl)-3-(2-nitro-phenylsulfanyl)-1H-indol-6-yl]-amide]	> 80	+ (between 1% and 5%)	–	–
O=C(CF)Nc1ccc2c(Sc3ccccc3[N+](=O)[O-])cn(Cc3cc(F)cc(F)c3)c2c1 [Compound 97, N-[1-(3,5-Difluoro-benzyl)-3-(2-nitro-phenylsulfanyl)-1H-indol-6-yl]-2-fluoro-acetamide]	–	+ (between 1% and 5%)	> 80	–
Cl.N#Cc1ccc2c(Sc3ccccc3[N+](=O)[O-])cn(Cc3ccccn3)c2c1 [Compound 120, 3-(2-Nitro-phenylsulfanyl)-1-pyridin-2-ylmethyl-1H-indol-6-carbonitrile monohydrochloride]	–	++ (>5%)	–	++ (≧0.80)
O=C(CF)Nc1ccc2c(Sc3ccccc3[N+](=O)[O-])cn(Cc3cccnc3)c2c1 [Compound 104, 2-Fluoro-N-[3-(2-nitro-phenylsulfanyl)-1-pyridin-3-ylmethyl-1H-indol-6-yl]-acetamide]	–	+ (between 1% and 5%)	< 20	–
